Data taken from patent US10588906B2, “Method of preventing hair loss or promoting hair growth by using phosphodiesterase 3 inhibitor” (SEOUL NATIONAL UNIVERSITY HOSPITAL, priority 2017, dated 2020).

What was measured:
ERK signaling pathway = assay: Western blotting of ERK phosphorylation in hDPCs; assay type: cell-based, human; settings: 1 μM, within 15 minutes, FIG. 2
Method: To identify the effects of PDE 3 inhibitors on an ERK signaling pathway, which is a key cell proliferation-associated signaling pathway, human hDPCs were treated with cilostazol, cilostamide, trequinsin, or milrinone at a concentration of 1 μM for 0 minute, 5 minutes, 15 minutes, and 60 minutes, and western blotting was performed thereon.

[1] = tested on: human hair follicle-derived hair dermal papilla cells (hDPCs); assay: BrdU assay of cell division of hDPCs; assay type: cell-based; settings: 0 μM to 10 μM, 48 hours, versus negative control, FIG. 1
Method: To evaluate the effect of PDE on the proliferation of hair follicle cells, human hair follicle-derived hDPCs were treated with cilostazol, cilostamide, trequinsin, or milrinone, which are well-known PDE 3 inhibitors, and then subjected to a BrdU assay.
First, primarily cultured hDPCs were treated with cilostazol, cilostamide, trequinsin, or milrinone at a concentration of 0 μM to 10 μM, cultured for 44 hours, treated with a BrdU reagent, and then allowed to react for 4 hours. After culturing for a total of 48 hours, the presence or absence of luminescence was measured using a luminometer for detecting BrdU, and cell division and activation degrees of the hDPCs were identified by comparison with a negative control.

C57BL/6 mice = assay: Anagen induction test in C57BL/6 mouse model; assay type: in vivo; settings: 0.2 wt % or 1 wt % applied once a day for three weeks
Text: To identify hair growth effects by PDE 3 inhibitors, an anagen induction effect was examined using a C57BL/6 mouse model. Although the hair cycle of human hair varies depending on individuals, mice have the same hair cycle at an initial stage and all hairs enter into a telogen phase 7 weeks to 8 weeks after birth, which then turns into an anagen phase. To evaluate an anagen induction effect using these characteristics of mice, dorsal hairs of 8-week-old C57BL/6 mice in the telogen phase were removed, 0.2 wt % or 1 wt % of cilostazol was applied thereon once a day for three weeks, and then through comparison with a negative control and the case of 2 wt % of minoxidil as a positive control, the presence or absence of hair growth and an anagen induction degree were identified. In addition, skin tissue from which anagen hair grew was fixed with paraffin and stained with hematoxylin and eosin to conduct a histological examination, and the results thereof are shown in FIG. 5.

[2] = tested on: MAPK-associated proteins (ERK, JNK, P-38); assay: Western blotting of MAPK-associated signaling proteins in mouse skin tissue; assay type: in vivo; settings: mouse skin tissue after anagen induction experiment, FIG. 6
Method: To verify the effect of a PDE 3 inhibitor on a MAPK-associated signaling pathway, which is a cell proliferation-associated signaling pathway, western blotting was performed using mouse skin tissue.

human hair follicles [3] = assay: Ex vivo hair follicle organ culture test; settings: 1 μM or 10 μM, day 2, 4 and 6, versus negative control, FIG. 3A
Method: To evaluate the effects of PDE 3 inhibitors on human hair follicle growth, an ex vivo hair follicle organic culture test was performed using cilostazol. More particularly, to conduct the ex vivo hair follicle organic culture test, scalp tissues obtained from volunteers were divided into follicular units, and parts below sebaceous glands of the divided hair follicles were cut off and the remaining parts of the hair follicles were used. The prepared hair follicles were cultured in a culture medium containing a negative control reagent or 1 μM or 10 μM cilostazol, the length of hair growing on day 2, day 4, and day 6 was measured, and then a hair growth promotion effect of the human hair follicles was identified by comparison with a negative control.

[4] = tested on: angiogenesis around hair follicles; assay: CD31 immunofluorescence staining for angiogenesis around hair follicles; assay type: in vivo; settings: mouse skin tissue
Method: To verify the effect of a PDE 3 inhibitor on angiogenesis around hair follicles, immunofluorescence staining with CD31, which is a blood vessel marker protein, was performed. More particularly, mouse skin tissue of a negative control and mouse skin tissue on which cilostazol was applied were rapidly cryotreated and prepared into blocks, and then each block was cut into a tissue section having a thickness of 15 μm using a cryotome and immobilized on a slide. In addition, each tissue section was allowed to react with antibodies against CD31, which is a blood vessel marker protein, as primary antibodies, and then treated with secondary antibodies with green fluorescence capable of detecting CD31, and the resulting tissue sections were observed using a fluorescence microscope and photographed, and the area of blood vessels was measured using an image analysis program.

human hair follicles [5] = assay: Ki-67 immunofluorescence staining of cultured hair follicles; settings: cultured for two days, FIG. 3B
Method: In addition, to identify cell proliferation of the cultured hair follicles through the test, immunofluorescence staining was performed using antibodies against Ki-67, which is a cell division marker. The hair follicles were treated with cilostazol, cultured for two days, and made into a tissue section, the tissue section was cut to a thickness of 4 μm and fixed on a slide, followed by reaction with Ki-67 treated with primary antibodies and treatment with secondary antibodies with green fluorescence capable of detecting Ki-67, and then the resulting section was observed using a fluorescence microscope and photographed, and the number of Ki-67 positive cells was identified. In addition, the nuclei of the hair follicles was stained using a DAPI reagent.

SMILES	phosphorylation of intracellular ERK proteins (ERK signaling pathway)	cell division of the hDPCs (BrdU) [1]	proportion of a site on which anagen hair grew (C57BL/6 mice; FIG. 4)	formation of hair follicles (hematoxylin and eosin histology) (C57BL/6 mice; FIG. 5A)	anagen induction score (C57BL/6 mice; FIG. 5B)	skin thickness (C57BL/6 mice; FIG. 5C)	phosphorylation of the MAPK-associated signaling proteins (ERK, JNK, P-38) [2]	hair growth of the human hair follicles (length of hair) (human hair follicles [3])	angiogenesis (CD31 staining) ([4]; FIG. 7A)	area of blood vessels ([4]; image analysis, FIG. 7B)	cell division in the human hair follicles (Ki-67 positive cells) (human hair follicles [5])
CN(C(=O)CCCOc1ccc2[nH]c(=O)ccc2c1)C1CCCCC1 [cilostamide]	increased	significantly increased	–	–	–	–	–	–	–	–	–
O=C1CCc2cc(OCCCCc3nnnn3C3CCCCC3)ccc2N1 [cilostazol]	increased	significantly increased	significantly increased	promoted	increases	increases	increased	promoted hair growth	induced	increased	increased
Cc1[nH]c(=O)c(C#N)cc1-c1ccncc1 [milrinone]	increased	significantly increased	–	–	–	–	–	–	–	–	–
COc1cc2c(cc1OC)-c1c/c(=N\c3c(C)cc(C)cc3C)n(C)c(=O)n1CC2 [trequinsin]	increased	significantly increased	–	–	–	–	–	–	–	–	–
